{"source": "patent US20100041089A1", "about": "“IMPROVED METHOD FOR DETECTING CHEMICAL […]” (priority 2006, published 2010)", "system": "promoter of yeast gene YKL071w", "experiment": "Dissolved oxygen measurement with oxygen electrode using yeast transformed with YKL071w promoter linked to oxidase (pyridoxamine phosphate substrate)", "format": "cell-based, Saccharomyces cerevisiae W303", "details": "sample solutions A, B, C with 0.0053, 0.053, 0.53 ppm versus standard solution S; FIG. 4", "method": "Primers for PCR to amplify the polynucleotide comprising the promoter of yeast gene YKL071w were prepared. Primers were designed using a primer design software, Oligo4.0-S, Sequencher I Mackintosh version. The base sequence of the upper primer was:\nFor PCR, yeast chromosome (Saccharomyces cerevisiae S288C, Cat.40802, Research Genetics, Inc.) was used as template, and the commercially available kit (KOD DNA Polymerase; Code KOD-101, Toyobo) was used as reagents. […]\nThe yeast in a steady state is diluted 500 times with the SD medium, and it is shake cultured at 25° C. for 15 hours. After confirming the logarithmic growth phase at which absorbance at 600 nm is within 0.2 to 0.5, different concentrations of TPN is loaded. […]\nBy comparing a temporal change in a measured current value for the sample solution A, B or C and a temporal change in a measured current value for the standard solution S, an amount of pyridoxamine phosphate oxidase produced by stimulation of the chemical substance (TPN) in respective solutions for measurement may be determined and, thereby, existence or a quantity of the chemical substance may be detected."}
{"molecule": "N#Cc1c(Cl)c(Cl)c(Cl)c(C#N)c1Cl", "note": "[(9), 2,4,5,6-Tetrachloro-1,3-benzenedicarbonitrile]", "values": [{"measurement": "Temporal change in current value for dissolved oxygen measurement", "value": "as the concentration of the chemical substance (TPN) becomes larger, a decreasing rate of a current value at an initial stage becomes larger and a steady state value after reaching a plateau becomes lower"}]}
